Experimental data taken from US8399480B2, “Hydroxymethyl pyrrolidines as beta 3 adrenergic receptor agonists” (Merck Sharp & Dohme Corp., priority 2008, dated 2013).
Like-named read-outs stand apart in the source and are kept apart here. One block for each compound: values may come before it.

Columns and labels:
[1] = biological target: T1, human β3 adrenergic receptor (Homo sapiens, UniProt P13945); assay: Functional assay: cAMP production (LANCE TR-FRET) in CHO cells stably transfected with cloned β3 adrenergic receptor; type: cell-based
T1 construct: expressed in transfected cells; host or cells: Chinese hamster ovary (CHO) cells, stably transfected
In short: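 Agonist-stimulated cAMP in CHO cells stably expressing human β3 receptor, 6,000 cells per well in HBSS/HEPES/0.1% BSA with 0.6 mM IBMX, 30 min at room temperature. LANCE TR-FRET readout converted to cAMP via standard curve; maximal stimulation defined with isoproterenol.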

β3AR = biological target: T2, β3AR (Rattus norvegicus, UniProt P26255); settings: rats, intravenous administration, cited from earlier work
T2 construct: host or cells: rat, in vivo (bladder)

[2] = Table 5, read-out: Human β3 Functional
[3] = human β3 functional activity, shown as ranges, Table 13, read-out: Human β3 Functional
[4] = Table 12, read-out: Human β3 Functional
[5] = Table 4, human β3 functional activity, read-out: Human β Binding

T1 sequence (P13945 whole entry): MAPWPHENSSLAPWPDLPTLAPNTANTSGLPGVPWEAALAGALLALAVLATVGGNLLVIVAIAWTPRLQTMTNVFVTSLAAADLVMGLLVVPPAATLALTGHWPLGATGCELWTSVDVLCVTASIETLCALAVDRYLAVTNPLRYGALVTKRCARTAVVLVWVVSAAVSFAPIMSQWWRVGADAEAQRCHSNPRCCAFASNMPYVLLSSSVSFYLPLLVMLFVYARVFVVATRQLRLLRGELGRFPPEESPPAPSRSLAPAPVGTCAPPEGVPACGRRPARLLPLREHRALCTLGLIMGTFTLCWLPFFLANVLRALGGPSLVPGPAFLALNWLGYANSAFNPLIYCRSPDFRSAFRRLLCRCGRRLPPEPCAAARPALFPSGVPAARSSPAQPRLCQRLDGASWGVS
T2 sequence (P26255 whole entry): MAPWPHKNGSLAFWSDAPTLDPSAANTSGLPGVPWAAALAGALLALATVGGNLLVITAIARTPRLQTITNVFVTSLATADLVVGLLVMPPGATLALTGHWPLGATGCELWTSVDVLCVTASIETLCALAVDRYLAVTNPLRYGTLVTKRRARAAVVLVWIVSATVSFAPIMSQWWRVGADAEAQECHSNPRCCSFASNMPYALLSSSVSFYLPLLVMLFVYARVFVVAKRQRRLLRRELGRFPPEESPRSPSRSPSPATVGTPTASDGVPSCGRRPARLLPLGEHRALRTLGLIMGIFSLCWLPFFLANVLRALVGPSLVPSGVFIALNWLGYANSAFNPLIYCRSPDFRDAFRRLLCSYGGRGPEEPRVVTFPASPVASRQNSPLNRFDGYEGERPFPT

EC50 ([1]; Table 6, read-out: Human β3 Functional): 101 to 1000 nM
SMILES: Cc1nc2c(s1)CCCC2C(=O)Nc1ccc(CC2CCC(C(O)c3ccccc3)N2)cc1 (single isomer, unassigned) [Example 231]

EC50 [1, 2]: 11 to 100 nM
SMILES: O=C(Nc1ccc(C[C@@H]2CC[C@H]([C@H](O)c3ccccc3)N2)cc1)C1CCCc2ccnn21 (single isomer, unassigned) [Example 157]

EC50 ([1]; human β3 functional activity, shown as ranges, Table 14, read-out: Human β3 Functional): < 1 nM
SMILES: Nc1nc2c(s1)CCC2C(=O)Nc1ccc(CC2CCC(C(O)c3cccc(Cl)c3)N2)cc1 (single isomer, unassigned) [Example 310]

EC50 [1, 2]: 1 to 10 nM
SMILES: CC(C(=O)Nc1ccc(C[C@@H]2CC[C@H]([C@H](O)c3ccccc3)N2)cc1)n1nncc1C(=O)O (single isomer, unassigned) [Example 197]

EC50 [1, 2]: 1 to 10 nM
SMILES: Cc1ccc(=O)n(C(C)C(=O)Nc2ccc(C[C@@H]3CC[C@H]([C@H](O)c4ccccc4)N3)cc2)n1 (single isomer, unassigned) [Example 165]

EC50 ([1]; Table 10, β3AR-cAMP, read-out: Human β3 Functional): 1 to 10 nM
SMILES: O=C(Cn1ncccc1=O)Nc1ccc(C[C@@H]2CC[C@H]([C@H](O)c3cccc(F)c3)N2)cc1 [Example 281]

EC50 [1, 3]: 11 to 100 nM
SMILES: Nc1nc2c(s1)CCC2C(=O)Nc1ccc(CC2CCC(C(O)c3cccc(Cl)c3)N2)cc1 (single isomer, unassigned) [Example 294]

EC50 [1, 2]: < 1 nM
SMILES: Cc1nc2c(s1)CCC2C(=O)Nc1ccc(C[C@@H]2CC[C@H]([C@H](O)c3ccccc3)N2)cc1 (single isomer, unassigned) [Example 119]

EC50 [1, 4]: < 1 nM
SMILES: O=C(Nc1ccc(C[C@@H]2CC[C@H]([C@H](O)c3ccc(F)c(F)c3)N2)cc1)[C@@H]1CCc2scnc21 [Example 290]

EC50 [1, 2]: 11 to 100 nM
SMILES: CC(C(=O)Nc1ccc(C[C@@H]2CC[C@H]([C@H](O)c3ccccc3)N2)cc1)n1ccnn1 (single isomer, unassigned) [Example 182]

EC50 [1, 5]: 1 to 10 nM
SMILES: O=C(Cn1ncccc1=O)Nc1ccc(C[C@@H]2CC[C@H]([C@H](O)c3ccccc3)N2)cc1 [Example 20]

EC50 [1, 5]: 11 to 100 nM
SMILES: O=C(Cc1nnc(-c2ccncc2)[nH]1)Nc1ccc(C[C@@H]2CC[C@H]([C@H](O)c3ccccc3)N2)cc1 [Example 25]

EC50 [1, 2]: 1 to 10 nM
SMILES: Cc1n[nH]c2c1CCC2C(=O)Nc1ccc(C[C@@H]2CC[C@H]([C@H](O)c3ccccc3)N2)cc1 (single isomer, unassigned) [Example 139]

EC50 [1, 2]: < 1 nM
SMILES: CC(C(=O)Nc1ccc(C[C@@H]2CC[C@H]([C@H](O)c3ccccc3)N2)cc1)n1cccnc1=O (single isomer, unassigned) [Example 161]

EC50 [1, 5]: 11 to 100 nM
SMILES: O=C(Cn1ncnn1)Nc1ccc(C[C@@H]2CC[C@H]([C@H](O)c3ccccc3)N2)cc1 [Example 78]

EC50 ([1]; given as a range, cAMP, CHO cells, read-out: human β3 functional activity): 11 to 100 nM
SMILES: Nc1nc(CC(=O)Nc2ccc(C[C@@H]3CC[C@H]([C@H](O)c4ccccc4)N3)cc2Br)cs1 [Example 312, 2-(2-Amino-1,3-thiazol-4-yl)-N-[2-bromo-4-({(2S,5R)-5-[(R)-hydroxy(phenyl)methyl]pyrrolidin-2-yl}methyl)phenyl]acetamide]

EC50 [1, 2]: 101 to 1000 nM
SMILES: O=C(Nc1ccc(C[C@@H]2CC[C@H]([C@H](O)c3ccccc3)N2)cc1)C1CCc2sc(-c3ccc(F)cc3)nc21 (single isomer, unassigned) [Example 123]

EC50 ([1]; Table 11, read-out: Human β3 Functional): 11 to 100 nM
SMILES: Nc1nc2c(s1)CCC2C(=O)Nc1ccc(CC2CCC(C(O)c3ccc(F)cc3)N2)cc1 (single isomer, unassigned) [Example 282]

EC50 [1, 4]: < 1 nM
SMILES: Nc1nc2c(s1)CCC2C(=O)Nc1ccc(CC2CCC(C(O)c3ccc(F)c(F)c3)N2)cc1 (single isomer, unassigned) [Example 292]

EC50 [1, 2]: 1 to 10 nM
SMILES: CC(C(=O)Nc1ccc(C[C@@H]2CC[C@H]([C@H](O)c3ccccc3)N2)cc1)c1cnccn1 (single isomer, unassigned) [Example 206]

EC50 [1, 5]: 1 to 10 nM
SMILES: O=C(Cn1cnc2ccccc2c1=O)Nc1ccc(C[C@@H]2CC[C@H]([C@H](O)c3ccccc3)N2)cc1 [Example 16]

EC50 [1, 2]: 11 to 100 nM
SMILES: O=C(Nc1ccc(C[C@@H]2CC[C@H]([C@H](O)c3ccccc3)N2)cc1)C1CCc2ccccc21 (single isomer, unassigned) [Example 110]

SMILES: C[C@H](Cc1ccc2c(c1)OC(C(=O)[O-])(C(=O)[O-])O2)NC[C@H](O)c1cccc(Cl)c1.[Na+].[Na+] [CL316243]
bladder capacity (β3AR; cystometric studies, prolonged micturition interval without increasing residual urine volume): increases bladder capacity
bladder pressure (β3AR): reduces bladder pressure

EC50 [1, 2]: 1 to 10 nM
SMILES: CC(C(=O)Nc1ccc(C[C@@H]2CC[C@H]([C@H](O)c3ccccc3)N2)cc1)n1cncn1 (single isomer, unassigned) [Example 177]

EC50 [1, 2]: < 1 nM
SMILES: Nc1nc2c(s1)CCCC2C(=O)Nc1ccc(C[C@@H]2CC[C@H]([C@H](O)c3ccccc3)N2)cc1 (single isomer, unassigned) [Example 117]

EC50 [1, 3]: < 1 nM
SMILES: O=C(Nc1ccc(C[C@@H]2CC[C@H]([C@H](O)c3cccc(Cl)c3)N2)cc1)[C@@H]1CCc2scnc21 [Example 297]

EC50 [1, 2]: 101 to 1000 nM
SMILES: O=C(O)c1nc2c(s1)CCC2C(=O)Nc1ccc(C[C@@H]2CC[C@H]([C@H](O)c3ccccc3)N2)cc1 (single isomer, unassigned) [Example 142]

EC50 [1, 2]: 1 to 10 nM
SMILES: CC(C(=O)Nc1ccc(C[C@@H]2CC[C@H]([C@H](O)c3ccccc3)N2)cc1)c1cnccn1 (single isomer, unassigned) [Example 207]
